Measurements from patent US7067653B2, “Porphyrin Based neuton capture agents for cancer therapy” (The Regents of the University of California, priority 2000, dated 2006).

Experiments:
tumor = conditions: drugs currently in BNCT clinical trials; cited from earlier work
9L cells = assay: Dark toxicity assay in rat 9L gliosarcoma cells; assay type: cell-based; conditions: exposure for 24 hours
Method: (§1) In vitro studies using rat 9L gliosarcoma cells, mouse B16 melanoma cells and human U-373MG glioblastoma cells have been performed.
(§2) Human glioblastoma U373 MG and mouse melanoma B16 cells were obtained from ATCC. The rat gliosarcoma line was kindly provided by the UCSF Brain Tumor Research Group. All cells were maintained in log phase monolayer cultures with RPMI 1640 supplemented with 10% fetal bovine and 2 mM glutamine.
(§3) Cells were seeded in 96-well culture plates, allowed to settle and attach for 24–48 hours, and then triplicate wells were exposed to two fold serial dilutions of test compounds at concentrations up to 250 μM. Compounds 4, 6, 10, and the Zn(II) complex of 10 in crystalline form were carefully weighed and dissolved in 100% DMSO to prepare stock solutions; subsequent dilutions were done directly into the culture medium just prior to administration to cells. After short term (2 hours) or long term (24–48 hours) exposure, cells were washed and wells refilled with fresh culture medium. For dark toxicity trials cells were allowed to proliferate for an additional 48–72 hours. For phototoxicity trials, washed cells were irradiated for 10 minutes with broad spectrum (600–700 nm) red light and then returned to an incubator for 48–72 hours.

U-373 MG cells = assay: Dark toxicity assay in human glioblastoma U-373 MG cells; assay type: cell-based; conditions: exposure for 24 hours
Method: as §1, §2, §3

[1] = system: 9L, U-373 MG and B16 cells; assay: Phototoxicity assay, broad spectrum (600–700 nm) red light; assay type: cell-based; conditions: irradiation with broad spectrum light 10 minutes
Method: as §2, §3
As observed for the dark toxicity experiments, the corresponding Zn(II) complex […] was about 20-fold less phototoxic. […] As with dark toxicity, B16 cells were more resistant that the other two cell types.

Rat 9L tumor cells = assay: Intracellular localization by confocal fluorescence microscopy, 9L cells; assay type: cell-based; conditions: 2 μM, 6 or 24 hours
Method: (§4) Confocal fluorescence microscopy was used to examine the intracellular localization of nido-carboranylporphyrin 4 in live cells. Rat 9L tumor cells and human normal keratinocyte line HaCaT were used in these studies. HaCaT cells were included in these particular experiments because they adhere and spread nicely on glass cover slips, thus facilitating the imaging process. Cells exposed to 2 μM concentration of porphyrin 4 for either 6 or 24 hours were examined at a magnification of 200× for intracellular fluorescence using excitation/emission wavelengths optimized for this type of compound. […] In both cases, 100% of the cells were labeled and the cells exposed to drug for 24 hours were slightly brighter than those exposed for 6 hours. […] No fluorescent signal was detectable in the plasma membranes of isolated individual cells nor in the intercellular junctions of confluent cells.

[2] = system: human normal keratinocyte line HaCaT; assay: Intracellular localization by confocal fluorescence microscopy, HaCaT cells; assay type: cell-based; conditions: 2 μM, 6 or 24 hours
Method: as §4

N[C@@H](Cc1ccc(B(O)O)cc1)C(=O)O [BPA, L-4-dihydroxy-borylphenylalanine]
tumor selectivity compared with the carboranylporphyrins (tumor to normal brain ratio) (tumor): lower selectivities

disodium mercapto-closo-dodecaborate [BSH]
tumor selectivity compared with the carboranylporphyrins (tumor to normal brain ratio) (tumor): lower selectivities

meso-tetra[3-(1-methyl-nido-carboranyl)methylphenyl]porphyrin tetrapotassium salt [Compound 10]
IC50 (9L cells): ~150 µM
IC50 (U-373 MG cells): ~150 µM

meso-tetra[4-(1-methyl-nido-carboranyl)methylphenyl]porphyrin tetrapotassium salt [Compound 4]
IC50 (9L cells): ~150 µM
IC50 (U-373 MG cells): ~150 µM
IC50 ([1]; 2 hours exposure): 50 µM
IC50 ([1]; 24 hours exposure): 1.5 µM
cells labeled (Rat 9L tumor cells; 9L cells): 100%
intracellular localization (fluorescence) (Rat 9L tumor cells; live 9L cells): predominantly perinuclear
cells labeled ([2]; HaCaT cells): 100%
intracellular localization (fluorescence) ([2]; live HaCaT cells): predominantly perinuclear
